Data taken from ChEMBL document CHEMBL4819059, “3-Hydroxy-4-methyldecanoic Acid-Containing Cyclotetradepsipeptides from an Endolichenic Beauveria sp” (J Nat Prod, 2021).
The source made the active and inactive calls. No cut-off for these calls is given here.

How the values were obtained:
Type in all cases: functional, cell-based
HEI-OC1 = assay: Protective activity against […] HEI-OC1 cells assessed as cell viability at 10 uM after 48 hrs by CCK8 assay
L6 [1] = assay: Induction of glucose uptake in rat L6 myoblasts at 50 uM after 24 hrs
L6 [2] = assay: Induction of glucose uptake in rat L6 myoblasts after 24 hrs; conditions: dose 0.3125-80 µM
L6 [3] = assay: Induction of glucose uptake in rat L6 myotubes after 24 to 48 hrs; conditions: dose 2.5-80 µM, time 24-48 hrs

CCCCCC[C@H](C)[C@@H]1CC(=O)N[C@@H](Cc2ccc(O)cc2)C(=O)N[C@@H](Cc2ccccc2)C(=O)N[C@H]([C@@H](C)CC)C(=O)O1
Activity (HEI-OC1): Active

CCCCCC[C@H](C)[C@@H]1CC(=O)N[C@@H](Cc2c[nH]c3ccccc23)C(=O)N[C@@H](Cc2ccc(O)cc2)C(=O)N[C@H](CC(C)C)C(=O)O1
Activity (L6 [1]): Active

CCCCCC[C@H](C)[C@@H]1CC(=O)N[C@@H](Cc2c[nH]c3ccccc23)C(=O)N[C@@H](Cc2ccccc2)C(=O)N[C@H](CC(C)C)C(=O)O1
Activity (HEI-OC1): Active

CCCCCCC(C)[C@@H]1CC(=O)N[C@@H](Cc2ccc(O)cc2)C(=O)N[C@@H](Cc2ccc(O)cc2)C(=O)N[C@H]([C@@H](C)CC)C(=O)O1 (some centres undefined)
Activity (L6 [1]): Active

CCCCCC[C@H](C)[C@@H]1CC(=O)N[C@@H](Cc2c[nH]c3ccccc23)C(=O)N[C@@H](Cc2ccc(O)cc2)C(=O)N[C@H]([C@@H](C)CC)C(=O)O1
Activity (L6 [1]): Active

CCCCCC[C@H](C)[C@@H]1CC(=O)N[C@@H](Cc2c[nH]c3ccccc23)C(=O)N[C@@H](Cc2ccccc2)C(=O)N[C@H]([C@@H](C)CC)C(=O)O1
Activity (L6 [1]): Active
Activity (HEI-OC1): Active
Activity (L6 [2]): Dose-Dependent Effect
Activity (L6 [3]): Dose-Dependent Effect
